Data taken from US20240239796A1, “CRYSTALLINE POLYMORPHS OF EPIDERMAL GROWTH FACTOR RECEPTOR INHIBITOR, AND COMPOSITIONS AND METHODS THEREOF” (Crimson BioPharm Inc., priority 2022, published 2024).
Read-outs that look alike come from different tables or passages of the source.

Tests used:
Format in all cases: physicochemical
[1] = Stability study (grinding, high humidity)
Method: A certain amount (e.g., ˜10 mg) of crystalline Form I was ground for 2 min or put at 25° C./92.5% RH for 2 weeks. Then the sample was tested by XRPD to determine the physical stability.

Slurry study = details: XRPD; for Form of wet cake at 1 day: 50° C.; for Form of wet cake at 4 days: RT (~20° C.), ~25 mg/mL
Method: Appropriate amount of crystalline Form I was added into different solvents to make suspension. The suspensions were kept stirring at room temperature (RT, ˜20° C.) or 50° C., respectively. Solid samples were collected and analyzed by XRPD at a specific time. If new XRPD patterns were identified, the sample was further analyzed by DSC and TGA.

[2] = Inter-conversion study (competitive slurry); details: for form after slurry: ACN-water (1/9); for Slurry at 50° C. 1 or 7 d (wet cake) / Slurry at RT (~20° C.) 3 d (wet cake): competitive slurry in IPA, resulting form; for Form at 7 d: slurry in ACN/water 1/9 (v/v)
Method: (20 mg/mL) and RT (10 mg/mL), and in ACN-water (1/9) at 50° C. (10 mg/mL) and RT (5 mg/mL).
The mixture of crystalline Form I and crystalline Form V of the sample was suspended in IPA at 50° C. (20 mg/mL) and RT (5 mg/mL).
The residual solids from both mixtures were obtained and characterized.

Water activity study = assay: Water activity study
Method: A certain amount (e.g., ˜70 mg) of crystalline Form I was stirred in 500 μL of acetone-water mixtures with different water content (5%, 10%, 30%, 50%, 70% and 90%) at RT (˜20° C.) for 3, 7 or 8 days. Residual solids were collected and characterized.

Rough solubility testing = details: for solubility: thermodynamic from solid, ~20° C., read-out: Solubility of Tosylate (mg/mL, ~20° C.); for solubility (in words): RT (~20° C.)
Method: About 2 mg of crystalline Form I was weighed into glass vials, and then different selected solvents were added in the vial stepwise until all solid was dissolved. This experiment was conducted by manual dilution combined with visual observation at ˜20° C. The total volume of solvent added was recorded.

[3] = Dynamic moisture sorption analysis (DVS)
Method: DVS was determined using DVS Intrinsic (SMS, UK). A sample was tested at a targeted relative humidity (RH) of 10 to 90% full cycle in step mode. The analysis was performed in 10% RH increments: • Equilibrium: 60 min; • RH (%) measurement points: • Sorption: 0, 10, 20, 30, 40, 50, 60, 70, 80, 90 • Desorption: 80, 70, 60, 50, 40, 30, 20, 10, 0.

[4] = Form conversion on heating / desolvation (XRPD, FIG. 5, FIG. 8)
[5] = slurry in Acetone/water 1/1 (v/v), water activity 0.93, RT
[6] = slurry in Acetone/water 1/9 (v/v), water activity 0.98, RT
[7] = slurry in Acetone/water 3/7 (v/v), water activity 0.95, RT
[8] = slurry in Acetone/water 7/3 (v/v), water activity 0.88, RT
[9] = slurry in Acetone/water 9/1 (v/v), water activity 0.72, RT
[10] = slurry in Acetone/water 19/1 (v/v), water activity 0.31, RT

Structure (SMILES): C=CC(=O)Nc1cc(Nc2nccc(-n3ccc4cccnc43)n2)c(OC)cc1N(C)CCN(C)C.Cc1ccc(S(=O)(=O)O)cc1 [Form I, N-(5-((4-(1H-pyrrolo[2,3-b]pyridin-1-yl)pyrimidin-2-yl)amino)-2-((2-(dimethylamino)ethyl)(methyl)amino)-4-methoxyphenyl)acrylamide tosylate salt]
- solid-state stability ([1]; after stressing with temperature and high RH): good solid-state stability
- Physical stability (form change by XRPD) ([1]; high humidity, 25° C./92.5% RH for 2 weeks): No form change
- Physical stability (form change by XRPD) ([1]; mechanical stress (grinding, 2 min)): No form change
- Form of wet cake at 1 day (Slurry study; slurry in ACN): Form I
- Form of wet cake at 4 days (Slurry study; slurry in ACN): Form I
- Form of wet cake at 1 day (Slurry study; slurry in Acetone): Form I
- Form of wet cake at 4 days (Slurry study; slurry in Acetone): Form I
- Form of wet cake at 1 day (Slurry study; slurry in EA): Form I
- Form of wet cake at 4 days (Slurry study; slurry in EA): Form I
- Form of wet cake at 1 day (Slurry study; slurry in EtOH): Form I
- Form of wet cake at 4 days (Slurry study; slurry in EtOH): Form I
- Form of wet cake at 1 day (Slurry study; slurry in Heptane): Form I
- Form of wet cake at 4 days (Slurry study; slurry in Heptane): Form I
- Form of wet cake at 1 day (Slurry study; slurry in IPA): Form I
- Form of wet cake at 4 days (Slurry study; slurry in IPA): Form I
- Form of wet cake at 1 day (Slurry study; slurry in IPAC): Form I
- Form of wet cake at 4 days (Slurry study; slurry in IPAC): Form I
- Form of wet cake at 1 day (Slurry study; slurry in Isobutanol): Form I
- Form of wet cake at 4 days (Slurry study; slurry in Isobutanol): Form I
- Form of wet cake at 1 day (Slurry study; slurry in MEK): Form I
- Form of wet cake at 4 days (Slurry study; slurry in MEK): Form I
- Form of wet cake at 1 day (Slurry study; slurry in MTBE): Form I
- Form of wet cake at 4 days (Slurry study; slurry in MTBE): Form I
- Form of wet cake at 1 day (Slurry study; slurry in THF): Form I
- Form of wet cake at 4 days (Slurry study; slurry in THF): Form I
- Form of wet cake at 1 day (Slurry study; slurry in Toluene): Form I
- Form of wet cake at 4 days (Slurry study; slurry in Toluene): Form I
- Form of wet cake at 1 day (Slurry study; slurry in Water): Form I
- Form of wet cake at 4 days (Slurry study; slurry in Water): Form I
- form after slurry ([2]; 50° C.): crystalline Form III
- form after slurry ([2]; RT): crystalline Form VI
- relative stability among crystal forms ([2]; polymorph screening, anhydrate forms): most stable anhydrate form
- Form at 3 d (Water activity study; [5]): Form V
- Form at 7 d (Water activity study; [5]): Form V
- Form at 3 d (Water activity study; [6]): Form I
- Form at 7 d (Water activity study; [6]): Form I
- Form at 3 d (Water activity study; [7]): Form V
- Form at 7 d (Water activity study; [7]): Form V
- Form at 3 d (Water activity study; [8]): Form V
- Form at 7 d (Water activity study; [8]): Form V
- Form at 3 d (Water activity study; [9]): Form V
- Form at 7 d (Water activity study; [9]): Form V
- Form at 3 d (Water activity study; [10]): Form I
- Form at 7 d (Water activity study; [10]): Form VII
- Form at 8 d (Water activity study; [10]): Form V
- solubility (Rough solubility testing; ACN (acetonitrile), organic solvent or mixture, solvent ACN): ~2.2 mg/mL
- solubility (in words) (Rough solubility testing; in MeOH and DCM): relatively high solubility
- solubility (in words) (Rough solubility testing; in the other single solvents (not MeOH, DCM)): very low solubility
- solubility (Rough solubility testing; organic solvent or mixture, solvent Acetone): ~0.95 mg/mL
- solubility (Rough solubility testing; organic solvent or mixture, solvent DCM): ~5.1 mg/mL
- solubility (Rough solubility testing; organic solvent or mixture, solvent EA): < 1 mg/mL
- solubility (Rough solubility testing; organic solvent or mixture, solvent EtOH): ~1.9 mg/mL
- solubility (Rough solubility testing; organic solvent or mixture, solvent Heptane): < 1 mg/mL
- solubility (Rough solubility testing; organic solvent or mixture, solvent IPA): < 1.11 mg/mL
- solubility (Rough solubility testing; organic solvent or mixture, solvent IPAC): < 1.2 mg/mL
- solubility (Rough solubility testing; organic solvent or mixture, solvent Isobutanol): < 1 mg/mL
- solubility (Rough solubility testing; organic solvent or mixture, solvent MEK): ~0.92 mg/mL
- solubility (Rough solubility testing; organic solvent or mixture, solvent MTBE): < 1.1 mg/mL
- solubility (Rough solubility testing; organic solvent or mixture, solvent MeOH): ~27.3 mg/mL
- solubility (Rough solubility testing; organic solvent or mixture, solvent THF): < 1.14 mg/mL
- solubility (Rough solubility testing; organic solvent or mixture, solvent Toluene): < 1.2 mg/mL
- solubility (Rough solubility testing; solvent Water): < 1.02 mg/mL

Structure (SMILES): C=CC(=O)Nc1cc(Nc2nccc(-n3ccc4cccnc43)n2)c(OC)cc1N(C)CCN(C)C.Cc1ccc(S(=O)(=O)O)cc1 [Form VI, N-(5-((4-(1H-pyrrolo[2,3-b]pyridin-1-yl)pyrimidin-2-yl)amino)-2-((2-(dimethylamino)ethyl)(methyl)amino)-4-methoxyphenyl)acrylamide tosylate salt]
- water sorption ([3]; 80% RH and 25° C.): 0.72%
- hygroscopicity ([3]; DVS, 80% RH and 25° C.): slightly hygroscopic
- crystalline form change after DVS test ([3]; after DVS test): no crystalline form change

Structure (SMILES): C=CC(=O)Nc1cc(Nc2nccc(-n3ccc4cccnc43)n2)c(OC)cc1N(C)CCN(C)C.Cc1ccc(S(=O)(=O)O)cc1 [Form IV, N-(5-((4-(1H-pyrrolo[2,3-b]pyridin-1-yl)pyrimidin-2-yl)amino)-2-((2-(dimethylamino)ethyl)(methyl)amino)-4-methoxyphenyl)acrylamide tosylate salt]
- form conversion on heating ([4]; heated to 200° C.): convert to crystalline Form III

Structure (SMILES): C=CC(=O)Nc1cc(Nc2nccc(-n3ccc4cccnc43)n2)c(OC)cc1N(C)CCN(C)C.Cc1ccc(S(=O)(=O)O)cc1 [Form I and III (1:1)]
- Slurry at 50° C. 1 or 7 d (wet cake) ([2]; 50° C.): Form I
- Slurry at RT (~20° C.) 3 d (wet cake) ([2]; RT): Form I
- Form at 7 d ([2]; 50° C.): Form III
- Form at 7 d ([2]; RT (~20° C.)): Form VI

Structure (SMILES): C=CC(=O)Nc1cc(Nc2nccc(-n3ccc4cccnc43)n2)c(OC)cc1N(C)CCN(C)C.Cc1ccc(S(=O)(=O)O)cc1 [Form II, N-(5-((4-(1H-pyrrolo[2,3-b]pyridin-1-yl)pyrimidin-2-yl)amino)-2-((2-(dimethylamino)ethyl)(methyl)amino)-4-methoxyphenyl)acrylamide tosylate salt]
- form conversion after desolvation ([4]; desolvation at 170° C.): transform to crystalline Form III

Structure (SMILES): C=CC(=O)Nc1cc(Nc2nccc(-n3ccc4cccnc43)n2)c(OC)cc1N(C)CCN(C)C.Cc1ccc(S(=O)(=O)O)cc1 [Form I and V (1:1)]
- Slurry at 50° C. 1 or 7 d (wet cake) ([2]; 50° C.): From I
- Slurry at RT (~20° C.) 3 d (wet cake) ([2]; RT): Form I
